According to patent US12440568B2 (priority 2010, dated 2025):

Tests used:
[1] = Company studies of solubility and sustained release
[2] = system: Cell lines of human bladder cancer; assay: MTT viability assay, MMC in DTC-2 versus MMC in saline; type: cell-based; conditions: cell lines exposed to MMC
Protocol: An in-vitro study was performed to evaluate the efficacy of DTCx materials as cytotoxic agents in the urinary bladder. […] Viability was assessed by MTT assay which tests mitochondrial function.
Cell lines of human bladder cancer were grown in RPMI 1640 medium, supplemented with FBS, 100 U/ml penicillin and […] streptomycin. […] After 2 hours of incubation, medium was replaced with fresh medium for all plates.
The plates were tested by taking out the medium and adding fresh medium containing MTT reagent. All other plates were returned to the incubator for incubation of 24, 72, 120 and 144 h. MTT assays were used to assess toxicity at all time points. The proportion of living cells was calculated by comparison to the control vehicle.
A microplate reader (EL 312e: Bio-Tek Instruments, Winooski VT) was used to evaluate the presence of […] as a color development measured by absorbance spectroscopy at 450 nm. Background optical density (OD) was subtracted from the OD readings of all samples. Cell viability was calculated by dividing the mean OD absorbance values of the treated wells by the mean OD absorbance of the control wells. All samples were tested in triplicate.
Reference is now made to FIGS. 3A-3D, which show graphs of cell viability as a function of time for various experiments.

[3] = system: TCC cell cultures and human bladder tumor tissue cultures; conditions: cited from earlier work

Row | Molecule | Solubility and release behaviour in the invented platform [1] | Higher cell kill with 10× longer exposure time or 10× higher concentration [2] | Concentration needed for similar cell kill effect when exposure reduced from 24 hours to two hours [3]
1 | Abamectin | solubility and first order sustained release |  | 
2 | COc1cccc2c1C(=O)c1c(O)c3c(c(O)c1C2=O)C[C@@](O)(C(=O)CO)C[C@@H]3O[C@H]1C[C@H](N)[C@H](O)[C@H](C)O1 [Doxorubicin] | solubility and first order sustained release |  | 
3 | O=C(O)Cc1ccccc1Nc1c(Cl)cccc1Cl [voltaren] | solubility and first order sustained release |  | 
4 | Nc1ccn([C@@H]2O[C@H](CO)[C@@H](O)C2(F)F)c(=O)n1 [Gemcitabin] | solubility and first order sustained release |  | 
5 | CO[C@@]12[C@H](COC(N)=O)C3=C(C(=O)C(C)=C(N)C3=O)N1C[C@@H]1N[C@@H]12 [MMC, Mitomycin C] |  | up to 30 × | ten times higher concentration
